We go through one compound from patent US9371527B2, “Compositions and methods related to protein displacement therapy for myotonic distrophy” (University of Rochester, priority 2006, dated 2016).

For this test, the system named is interaction of CUG repeat RNA with recombinant MBNL1 protein (MBNL1-PL). Briefly: Beta-galactosidase enzymatic complementation assay. In kind it is binding, human. Particulars: (CUG)109 tethered to streptavidin plate. As to the method:
FIGS. 33A and 33B. […] (CUG)109 transcripts are tethered to the surface of a streptavidin-coated microtiter plate using a capture oligonucleotide that is biotinylated. The capture oligo anneals to complementary sequence at the 3′ end of the CUG repeat RNA. Recombinant human MBNL1 is expressed as a fusion with the PL fragment of beta-galactosidase. PL is a 55 amino acid fragment of beta-galactosidase. […] After incubation with test compound, unbound MBNL1-PL is washed away (FIG. 33B). Next, the complementing fragment of beta-galactosidase is added to determine the amount of MBNL1-PL that continues to interact with (CUG)109 RNA and thereby is retained on the microtiter plate. The binding of complementing fragment of beta-galactosidase to PL reconstitutes its enzymatic activity. This activity is then determined by adding substrate to provide a fluorescence or chemiluminescence signal from active beta-galactosidase. […]
(CUG)109 transcripts are tethered to the surface of a streptavidin-coated microtiter plate using a capture oligonucleotide that is biotinylated. […] Recombinant human MBNL1 is expressed as a fusion with the PL fragment of beta-galactosidase. […] This activity is then determined by adding substrate to provide a fluorescence or chemiluminescence signal from active beta-galactosidase. […]

Regarding `CCCN(CCCN(C)C)c1cc(/C=C2/Sc3ccccc3N2C)c2ccccc2[n+]1-c1ccccc1` [SybrGreen], the “amount of MBNL1-PL retained on plate (beta-galactosidase activity)” value is “reduce the amount of MBNL1-PL retained on plate”.
